ChEMBL document CHEMBL6114980, “Single or double lipid-modified ultra-short antimicrobial peptides for treating infections caused by resistant bacteria” (Eur J Med Chem, 2025)
Active and inactive are the calls of the source. The calls are words filed in the database; no cut-off is given here. Peptide text beside a SMILES is read from it. * marks the point of attachment. Lauroyl = CCCCCCCCCCCC(=O)*; Octanoyl = CCCCCCCC(=O)*

Key:
Cell membrane [1] = assay: Induction of outer membrane permeabilization in Escherichia coli assessed as increase in fluorescence intensity at 0.5 times MIC measured for 10 mins by fluorescence based NPN uptake assay
Staphylococcus aureus [2] = assay: Induction of morphological changes in Staphylococcus aureus assessed as cell adhesion at 2 times MIC measured after 120 mins by SEM analysis; assay type: functional, organism-based
[3] = Acute toxicity in male BALB/c mouse assessed increase in interstitial space at 100 to 130 mg/kg, ip measured after 7 days by H and E staining based analysis; assay type: organism-based; conditions: in vivo, 168 h, dose 100-130 mg/kg, time 7 day
Escherichia coli [4] = assay: Antibacterial activity against Escherichia coli assessed as reduction in survival bacterial growth in presence of NaCl measured after 18 to 24 hrs (reference value: 8 microM); assay type: functional; conditions: time 18-24 hrs
Staphylococcus aureus [5] = assay: Additive antibacterial activity against Staphylococcus aureus 25923 assessed as fractional inhibitory in presence of cephalothin by checker board assay; assay type: functional
[6] = Acute toxicity in male BALB/c mouse assessed effect on edema in spleen at 100 to 130 mg/kg, ip measured after 7 days by H and E staining based analysis; assay type: organism-based; conditions: in vivo, 168 h, dose 100-130 mg/kg, time 7 day
Staphylococcus aureus [7] = assay: Antibacterial activity against Staphylococcus aureus 25923 at sub-MIC concentration measured after 15 passages in presence of rifampin; assay type: functional, organism-based
Staphylococcus aureus [8] = assay: Antibacterial activity against Staphylococcus aureus assessed as reduction in survival bacterial growth in presence of KCl measured after 18 to 24 hrs (reference value: 4 microM); assay type: functional; conditions: time 18-24 hrs
Staphylococcus aureus [9] = assay: Antibacterial activity against Staphylococcus aureus assessed as reduction in survival bacterial growth in presence of MgCl2 measured after 18 to 24 hrs (reference value: 4 microM); assay type: functional; conditions: time 18-24 hrs
Staphylococcus aureus [10] = assay: Additive antibacterial activity against methicillin-resistant Staphylococcus aureus 113 assessed as fractional inhibitory in presence of polymyxin B by checker board assay; assay type: functional
[11] = Acute toxicity in male BALB/c mouse assessed increase in inflammatory cell infiltration at 100 to 130 mg/kg, ip measured after 7 days by H and E staining based analysis; assay type: organism-based; conditions: in vivo, 168 h, dose 100-130 mg/kg, time 7 day
Staphylococcus aureus [12] = assay: Antibacterial activity against Staphylococcus aureus assessed as reduction in survival bacterial growth in presence of FeCl3 measured after 18 to 24 hrs (reference value: 4 microM); assay type: functional; conditions: time 18-24 hrs
[13] = Acute toxicity in male BALB/c mouse assessed distorted alveolar morphology at 100 to 130 mg/kg, ip measured after 7 days by H and E staining based analysis; assay type: organism-based; conditions: in vivo, 168 h, dose 100-130 mg/kg, time 7 day
[14] = Acute toxicity in male BALB/c mouse assessed congestion at 100 to 130 mg/kg, ip measured after 7 days by H and E staining based analysis; assay type: organism-based; conditions: in vivo, 168 h, dose 100-130 mg/kg, time 7 day
Staphylococcus aureus [15] = assay: Antibacterial activity against Staphylococcus aureus assessed as reduction in survival bacterial growth in presence of ZnCl2 measured after 18 to 24 hrs (reference value: 4 microM); assay type: functional; conditions: time 18-24 hrs
Escherichia coli [16] = assay: Antibacterial activity against Escherichia coli 25922 at sub-MIC concentration measured after 15 passages in presence of rifampin; assay type: functional, organism-based
Staphylococcus aureus [17] = assay: Antibacterial activity against Staphylococcus aureus assessed as reduction in survival bacterial growth in presence of <= 2 ug/ml trypsin measured after1 hr by absorbance based analysis; assay type: functional, organism-based; conditions: time 1.0 hrs
Escherichia coli [18] = assay: Antibacterial activity against Escherichia coli assessed as reduction in survival bacterial growth in presence of MgCl2 measured after 18 to 24 hrs (reference value: 8 microM); assay type: functional; conditions: time 18-24 hrs
[19] = Acute toxicity in male BALB/c mouse assessed effect on edema in heart at 100 to 130 mg/kg, ip measured after 7 days by H and E staining based analysis; assay type: organism-based; conditions: in vivo, 168 h, dose 100-130 mg/kg, time 7 day
Staphylococcus aureus [20] = assay: Antibacterial activity against Staphylococcus aureus assessed as reduction in survival bacterial growth in presence of NaCl measured after 18 to 24 hrs (reference value: 4 microM); assay type: functional; conditions: time 18-24 hrs
[21] = Acute toxicity in male BALB/c mouse assessed effect on edema in kidney at 100 to 130 mg/kg, ip measured after 7 days by H and E staining based analysis; assay type: organism-based; conditions: in vivo, 168 h, dose 100-130 mg/kg, time 7 day
Escherichia coli [22] = assay: Antibacterial activity against Escherichia coli assessed as reduction in survival bacterial growth in presence <=0.2 ug/ml of trypsin measured after1 hr by absorbance based analysis; assay type: functional, organism-based; conditions: time 1.0 hrs
[23] = Acute toxicity in male BALB/c mouse assessed inflammatory cell infiltration in liver at 100 to 130 mg/kg, ip measured after 7 days by H and E staining based analysis; assay type: organism-based; conditions: in vivo, 168 h, dose 100-130 mg/kg, time 7 day
Staphylococcus aureus [24] = assay: Synergistic antibacterial activity against methicillin-resistant Staphylococcus aureus 113 assessed as fractional inhibitory in presence of polymyxin B by checker board assay; assay type: functional
Staphylococcus aureus [25] = assay: Synergistic antibacterial activity against Staphylococcus aureus 25923 assessed as fractional inhibitory in presence of cephalothin by checker board assay; assay type: functional
Cell membrane [26] = assay: Induction of cytoplasmic membrane depolarization in Staphylococcus aureus assessed as increase in fluorescence intensity at 0.5 to 4 times MIC measured for 1 mins by DiSC3-5 dye based fluorescence assay
Staphylococcus aureus [27] = assay: Antibacterial activity against Staphylococcus aureus assessed as reduction in survival bacterial growth in presence of <=0.2 ug/ml trypsin measured after1 hr by absorbance based analysis; assay type: functional, organism-based; conditions: time 1.0 hrs
[28] = Acute toxicity in male BALB/c mouse assessed partial hepatocyte necrosis at 100 to 130 mg/kg, ip measured after 7 days by H and E staining based analysis; assay type: organism-based; conditions: in vivo, 168 h, dose 100-130 mg/kg, time 7 day
Staphylococcus aureus [29] = assay: Antibacterial activity against Staphylococcus aureus assessed as reduction in survival bacterial growth in presence of NaCl measured after 18 to 24 hrs (reference value: 8 microM); assay type: functional; conditions: time 18-24 hrs
Cell membrane [30] = assay: Induction of cytoplasmic membrane depolarization in Escherichia coli assessed as increase in fluorescence intensity at 0.5 to 2 times MIC measured for 10 mins by DiSC3-5 dye based fluorescence assay
Escherichia coli [31] = assay: Antibacterial activity against Escherichia coli assessed as reduction in survival bacterial growth in presence <=0.02 ug/ml of trypsin measured after1 hr by absorbance based analysis; assay type: functional, organism-based; conditions: time 1.0 hrs
[32] = Acute toxicity in male BALB/c mouse assessed inflammatory cell infiltration in lung at 100 to 130 mg/kg, ip measured after 7 days by H and E staining based analysis; assay type: organism-based; conditions: in vivo, 168 h, dose 100-130 mg/kg, time 7 day
Staphylococcus aureus [33] = assay: Additive antibacterial activity against methicillin-resistant Staphylococcus aureus assessed as fractional inhibitory in presence of streptomycin by checker board assay; assay type: functional
[34] = Acute toxicity in male BALB/c mouse assessed inflammatory cell infiltration in kidney at 100 to 130 mg/kg, ip measured after 7 days by H and E staining based analysis; assay type: organism-based; conditions: in vivo, 168 h, dose 100-130 mg/kg, time 7 day

With `CCCCCCCCCCCC(=O)N[C@@H](CCCCN)C(=O)N[C@@H](CCCCN)C(=O)N[C@@H](Cc1c[nH]c2ccccc12)C(=O)N[C@@H](Cc1c[nH]c2ccccc12)C(N)=O` (Lauroyl-KKWW-NH2) the Activity (Cell membrane [1]) was “Active”, the Activity (Staphylococcus aureus [2]) was “Active” and the Activity [3] was “Toxic”. For the same compound, the MIC (Escherichia coli [4]) was 8 µM, the “fractional inhibitory concentration index (FICI)” value (Staphylococcus aureus [5]) was 0.562 and the Activity [6] was “Non-toxic”. The Activity (Staphylococcus aureus [7]) was “Active”, the MIC (Staphylococcus aureus [8]) was 4 µM and the MIC (Staphylococcus aureus [9]) was 4 µM. For the same compound, the “fractional inhibitory concentration index (FICI)” value (Staphylococcus aureus [10]) was 0.625, the Activity [11] was “Toxic” and the MIC (Staphylococcus aureus [12]) was 2 µM. The Activity [13] was “Toxic”, the Activity [14] was “Toxic” and the MIC (Staphylococcus aureus [15]) was 4 µM. For the same compound, the Activity (Escherichia coli [16]) was “Active”, the Activity (Staphylococcus aureus [17]) was “Active” and the MIC (Escherichia coli [18]) was 8 µM. The Activity [19] was “Non-toxic”, the MIC (Staphylococcus aureus [20]) was 4 µM and the Activity [21] was “Non-toxic”. The Activity (Escherichia coli [22]) was “Active”.

For `CCCCCCCC(=O)NCCCC[C@H](NC(=O)CCCCCCC)C(=O)N[C@@H](CCCCN)C(=O)N[C@@H](CCCCN)C(=O)N[C@@H](Cc1c[nH]c2ccccc12)C(=O)N[C@@H](Cc1c[nH]c2ccccc12)C(N)=O` (Octanoyl-K(Octanoyl)KKWW-NH2), the Activity [23] was “Non-toxic”, the “fractional inhibitory concentration index (FICI)” value (Staphylococcus aureus [24]) was 0.312 and the “fractional inhibitory concentration index (FICI)” value (Staphylococcus aureus [25]) was 0.5. The Activity (Cell membrane [26]) was “Active”, the Activity (Staphylococcus aureus [27]) was “Active” and the Activity [28] was “Non-toxic”. The MIC (Staphylococcus aureus [29]) was 8 µM, the Activity (Cell membrane [30]) was “Active; Compound Showed Similar Effect As Quality Control Polymyxin B” and the Activity (Escherichia coli [31]) was “Active”. The Activity [32] was “Non-toxic”, the “fractional inhibitory concentration index (FICI)” value (Staphylococcus aureus [33]) was 0.562 and the Activity [34] was “Non-toxic”.
